# Source: patent US10383869B2, “Treatment with opioid antagonists and mTOR inhibitors” (THE UNIVERSITY OF CHICAGO, priority 2008, dated 2019)
# “And” between values parts separate entries of the source, which are not always exact repeats. Equal entries are not always repeated. Where two headings read alike, the source gives them in different places.
# Key:
# [1] = system: human pulmonary microvascular endothelial cells (HPMVEC); experiment: Human pulmonary microvascular EC migration assay (VEGF-induced, transwell); type: cell-based; settings: VEGF 100 nM
# Description: Human pulmonary microvascular EC migration assay—Twenty-four transwell units with […] pore size were used for monitoring in vitro cell migration. HPMVEC (˜1×10^4 cells/well) were plated with various treatments to the upper chamber and VEGF (100 nM) was added to the lower chamber. Cells were allowed to migrate for 18 hours. Cells from the upper and lower chamber were quantitated using the CellTiter96™ MTS assay (Promega, San Luis Obispo, Calif.) and read at 492 nm. Percent migration was defined as the # of cells in the lower chamber divided by the number of cells in both the upper and lower chamber. Each assay was set up in triplicate, repeated at least five times and analyzed statistically by Student's t test (with statistical significance set at P<0.05).
# Synergistic effects of MNTX with Temsirolimus on inhibition of VEGF—induced human EC proliferation and migration. Inhibition curves of human EC assayed for VEGF (100 nM)-induced proliferation and migration (24 hours) in the presence or absence of 0.1, 1.0, 10, 100 or 500 nM MNTX, Temsirolimus or 10 nM MNTX+Temsirolimus. MNTX inhibited EC VEGF-induced proliferation with an IC50 of ˜100 nM. Adding 10 nM MNTX to EC shifted the IC50 of Temsirolimus inhibition of VEGF-induced proliferation from ˜10 nM to ˜1 nM. Experiments were performed in triplicate. Error bars=standard deviation. […]
# [2] = system: human pulmonary microvascular endothelial cells (HPMVEC); experiment: Human pulmonary microvascular EC proliferation assay (VEGF-induced); type: cell-based
# Description: Human pulmonary microvascular EC proliferation assay—For measuring cell growth, HPMVEC [5×10^3 cells/well] pretreated with various agents were incubated with 0.2 ml of serum-free media containing 100 nM VEGF for 24 h at 37° C. in 5% CO2195% air in 96-well culture plates. The in vitro cell proliferation assay was analyzed by measuring increases in cell number using the CellTiter96™ MTS assay (Promega, San Luis Obispo, Calif.) and read at 492 nm. Each assay was set up in triplicate, repeated at least five times and analyzed statistically by Student's t test (with statistical significance set at P<0.05).
# (§1) Experiments were performed in triplicate. Error bars=standard deviation.
# as §1
# [3] = system: T1, mTOR Complex 1 (Homo sapiens); experiment: VEGF-induced mTOR complex formation, anti-Raptor immunoprecipitation and immunoblot; type: cell-based; settings: human EC, VEGF 100 nM 5 minutes, 1 hour pretreatment with 100 nM compound
# T1 construct: EC lysates were obtained and immunoprecipitated with anti-Raptor (mTOR Complex 1 component); endogenous in cells; host or cells: human endothelial cells (EC)
# Description: (§2) Analysis of mTOR Complex Formation and Regulation of Akt Phosphorylation—Human EC were serum starved for one hour and either untreated (control) or treated with VEGF (100 nM, 5 minutes) with or without pretreatment (1 hour) with 100 nM MNTX or 100 nM Temsirolimus. EC lysates were obtained and immunoprecipitated with anti-Raptor (mTOR Complex 1 component) or anti-Rictor (mTOR complex 2 component) antibody. The immunoprecipitated material was run on SDS-PAGE and immunoblotted with either anti-mTOR, anti-FKBP12, anti-Raptor, anti-SIN1 or anti-Rictor antibody. To investigate the regulation of Akt phosphorylation, human EC were serum starved for one hour and either untreated (control) or treated with VEGF (100 nM, 5 minutes) with or without pretreatment with the PI3 kinase inhibitor, LY294002 (10 μM, 1 hour), Src siRNA or Rictor (mTOR complex 2 component) siRNA. EC lysates were obtained, run on SDS-PAGE and immunoblotted with anti-pSer^473Akt, anti-pThr^308Akt or anti-Akt antibody.
# Akt = experiment: VEGF-induced Akt activation (phosphorylation) immunoblot in human pulmonary microvascular endothelial cells; type: cell-based; settings: for VEGF-induced phosphorylation (activation) of Akt at serine 473 and threonine 308: human EC, VEGF 100 nM 5 minutes, 1 hour pre-treatment with 100 nM compound
# Description: To assess the effects of methylnaltrexone (MNTX) on the VEGF-induced activation of the serine/threonine kinase Akt, a well-characterized endothelial cell line, human pulmonary microvascular endothelial cells (HPMVEC), was used. HPMVEC were serum starved for one hour and either untreated (control) or treated with VEGF (100 nM, 5 minutes) with or without pre-treatment (1 hour) with 100 nM MNTX, 100 ng/ml bevacizumab, 100 μM 5-FU, 100 nM MNTX+100 ng/ml bevacizumab or 100 nM MNTX+100 μM 5-FU. Cell lysates were obtained, run on SDS-PAGE and immunoblotted with anti-pSer^473Akt, anti-pThr^308Akt, anti-Akt or anti-actin antibody.
# Cell Culture and Reagents—Human pulmonary microvascular EC were obtained from Cambrex (Walkersville, Md.) and cultured as previously described (Singleton et al. (2006), Microvasc. Res. 72(1-2):3-11; Singleton et al. (2007), Am. J. Respir. Cell Mol. Biol. 37(2):222-231) in EBM-2 complete medium (Cambrex) at 37° C. in a humidified atmosphere of 5% CO2, 95% air, with passages 6-10 used for experimentation. Unless otherwise specified, reagents were obtained from Sigma (St. Louis, Mo.). Vascular endothelial growth factor (VEGF) was purchased from R&D Systems (Minneapolis, Minn.). Methylnaltrexone bromide (MNTX) was purchased from Mallinckrodt Specialty Chemicals (Phillipsburg, N.J.). Bevacizumab was purchased from Genentech (South San Francisco, Calif.). 5-fluorouracil (5-FU) was purchased from Abraxis Pharmaceutical Products (Schaumburg, Ill.). Naltrexone and rapamycin were purchased from Sigma (St. Louis, Mo.). Reagents for SDS-PAGE electrophoresis were purchased from Bio-Rad (Richmond, Calif.) and Immobilon-P transfer membrane was purchased from Millipore (Millipore Corp., Bedford, Mass.). Rabbit anti-pSer^473Akt, rabbit anti-pThr^308Akt and rabbit anti-Akt antibodies were purchased from Cell Signaling Technologies (Danvers, Mass.). Mouse anti-β-actin antibody was purchased from Sigma (St. Louis, Mo.). Secondary horseradish peroxidase (HRP)-labeled antibodies were purchased from Amersham Biosciences (Piscataway, N.J.). […]
# [4] = white crystalline powder, typically the bromide salt, as commercially provided; cited from earlier work
# mTOR Complex 2 = experiment: VEGF-induced mTOR complex formation, anti-Rictor immunoprecipitation and immunoblot; type: cell-based; settings: human EC, VEGF 100 nM 5 minutes, 1 hour pretreatment with 100 nM compound
# Description: as §2
compound,measurement,setting,value
"CN(N=O)c1ccc(O)c(O)c1 [3,4-dephostatin]",effect of PTP inhibitor on VEGF-induced EC migration,"[1]; 24 hours, with Temsirolimus with or without 10 nM MNTX",inhibited
same,effect of PTP inhibitor on VEGF-induced EC proliferation,"[2]; VEGF 100 nM, 24 hours, with Temsirolimus with or without 10 nM MNTX",inhibited
"C[N@+]1(CC2CC2)CC[C@]23c4c5ccc(O)c4O[C@H]2C(=O)CC[C@@]3(O)[C@H]1C5 [methylnaltrexone, N-methylnaltrexone]",VEGF-induced formation of mTOR Complex I,[3],inhibits
same,IC50,"[2]; Homo sapiens, Endothelial cell, 24 h, read-out: IC50 of inhibition of VEGF-induced EC proliferation",~100 nM
same,"inhibition of VEGF-induced pSer473Akt and pThr308Akt immunoreactivity, dose relation","Akt; 1.0, 10, 100, 1000 nM MNTX",dose-dependent
same,VEGF-induced phosphorylation (activation) of Akt at serine 473 and threonine 308,Akt,abrogated
same,solubility in water,[4],freely soluble in water
same,VEGF-induced formation of mTOR Complex II,mTOR Complex 2,inhibits
CO[C@H]1C[C@@H]2CC[C@@H](C)[C@@](O)(O2)C(=O)C(=O)N2CCCC[C@H]2C(=O)O[C@H]([C@H](C)C[C@@H]2CC[C@@H](OC(=O)C(C)(CO)CO)[C@H](OC)C2)CC(=O)[C@H](C)/C=C(\C)[C@@H](O)[C@@H](OC)C(=O)[C@H](C)C[C@H](C)/C=C/C=C/C=C/1C [temsirolimus],VEGF-induced formation of mTOR Complex I,[3],mTOR complex II only
same,IC50,"[2]; VEGF 100 nM, 24 hours, compound alone, read-out: IC50 of inhibition of VEGF-induced EC proliferation",~10 nM and 10 nM
same,IC50,"[2]; VEGF 100 nM, 24 hours, plus 10 nM MNTX, read-out: IC50 of inhibition of VEGF-induced EC proliferation with 10 nM MNTX added",~1 nM
same,IC50,"[2]; VEGF 100 nM, 24 hours, presence of 3,4-Dephostatin, read-out: IC50 of inhibition of VEGF-induced EC proliferation in the presence of 3,4-Dephostatin",15 nM
same,VEGF-induced phosphorylation (activation) of Akt at serine 473 and threonine 308,Akt,did not inhibit
same,VEGF-induced formation of mTOR Complex II,mTOR Complex 2,inhibits
rapamycin,inhibition of VEGF-induced endothelial cell migration,"[1]; 0.01, 0.1, 1.0 or 10 nM rapamycin",dose-dependent inhibition
same,inhibition of VEGF-induced endothelial cell proliferation,"[2]; VEGF 100 nM, 0.01, 0.1, 1.0 or 10 nM rapamycin",dose-dependent inhibition
